# Data reported in patent publication US20140234365A1, “2-HYDROXYHIPPURIC ACID ANALOGS, AND METHODS FOR THEIR SYNTHESIS AND USE” (ALERE SAN DIEGO, INC., priority 2011, published 2014).
# System: anti-2-Hydroxyhippuric acid antibody
# Assay: Competitive immunoassay for detecting 2-hydroxyhippuric acid (microfluidic device, fluorescent latex particle conjugate)
# Assay type: binding
# Conditions: analyte diluted into pools of human plasma, fluorescence read in TRIAGE meter after >15 minutes
# Text: A competitive assay for detecting 2-hydroxyhippuric acid in […] was developed using microfluidic devices manufactured at Alere San Diego, Inc. essentially as described in WO98/43739, WO98/08606, WO98/21563, and WO93/24231. An anti-2-Hydroxyhippuric acid antibody was developed by phage display using a hapten-KLH conjugate as immunogen. This antibody was conjugated to a 0.13 μm maleimide-functionalized latex particle via a free cysteine residue on the antibody. The detection reagent consisted of a 0.50 μm fluorescence energy transfer latex particle (essentially as described in U.S. Pat. Nos. 5,763,189, 6,238,931, and 6,251,687; and International Publication WO95/08772) made according to Example 6. […] (comprising 0.22% solids) of the antibody-particle conjugate was spotted onto the diagnostic lane of the microfluidic device, and 170 nL (comprising 0.4% solids) of the 2-Hydroxyhippuric acid-particle conjugate was applied to the device reaction chamber. Analytes were dissolved in deionized water, then diluted into pools of human plasma to achieve the desired final concentration. 210 μL of sample was applied to the device sample addition zone and allowed to run >15 minutes prior to reading the fluorescence in the TRIAGE (Biosite Incorporated) meter. A fluorescent signal was obtained by integrating the fluorescence as a function of distance from the device origin.
smiles,measurement,value
"O=C(O)CNC(=O)c1ccccc1O [2-Hydroxyhippuric acid, 2-hydroxyhippuric acid]",concentration at which the assay detected the analyte,10 µg/mL
